Data as given in US6414145B1, “Imidazolyl compounds as inhibitors of farnesyl-protein tranferase” (Zeneca Limited, priority 1997, dated 2002).
pIC50: −log10 of the molar value.

Experiments:
[1] = biological target: T1, Farnesyl protein transferase (FPT) (Homo sapiens, UniProt P49354+P49356); assay: Farnesyl protein transferase (FPT) inhibition, tritiated farnesyl pyrophosphate incorporation into Kras (CVIM); type: biochemical; settings: FPT partially purified from human placenta; 300 nM tritiated farnesyl pyrophosphate, 120 nM ras-CVIM, 20 minutes at 37°
T1 construct: partially purified from human placenta by ammonium sulphate fractionation; from tissue; host or cells: human placenta
Protocol: Biological activity was tested as follows. Farnesyl protein transferase (FPT) was partially purified from human placenta by ammonium sulphate fractionation followed by a single Q-Sepharose™ (Pharmacia, Inc) anion exchange chromatography essentially as described by Ray and Lopez-Belmonte (Ray K P and Lopez-Belmonte J (1992) Biochemical Society Transations 20 494-497). The substrate for FPT was Kras (CVIM C-terminal sequence). The cDNA for oncogenic va112 variant of human c-Ki-ras-2 4B was obtained from the plasmid pSW11-1 (ATCC). This was then subcloned into the polylinker of a suitable expression vector e.g. pIC147, The Kras was obtained after expression in the E. coli strain, BL21. The expression and purification of c-KI-ras-2 4B and the val12 variant in E. coli has also been reported by Lowe et al (Lowe P N et al. J. Biol. Chem. (1991) 266 1672-1678).
Incubations with enzyme contained 300 nM tritiated farnesyl pyrophosphate (DuPont/New England Nuclear), 120 nM ras-CVIM, 50 mM Tris HCl pH 8.0, 5 mM MgCl2, 10 μM ZnCl2, 5 mM dithiotheitol and compounds were added at appropriate concentrations in DMSO (3% final concentration in test and vehicle control). […] Precipitated protein was then collected onto glass fibre filter mats (B) using a Tomtec™ cell harvester and tritiated label was measured in a Wallac™ 1204 Betaplate scintillation counter.

| melting point | pIC50 [1] | Compound |
| --- | --- | --- |
| 106 °C |  | CSCC[C@H](NC(=O)c1ccc(/C=C(/Cn2ccnc2)c2ccc(F)cc2)cc1)C(=O)O [Example 12, (2S)-2-{4-[(E)-2-(4-Fluorophenyl)-3-(imidazol-1-yl)-prop-1-en-1-yl]benzamido}-4-methylsulfanylbutyric acid] |
| 98 to 100 °C |  | CSCC[C@H](NC(=O)c1cccc(/C=C(\Cn2ccnc2)c2ccc(F)cc2)c1)C(=O)O [Example 3, (2S)-2-{3-[(Z)-2-(4-fluorophenyl)-3-(imidazol-1-yl)-prop-1-enyl]-benzamido}-4-methylsulfanylbutyric acid] |
|  | ~6.82 | CSCC[C@H](NC(=O)c1ccc(/C=C(\c2ccccc2)C(C)n2ccnc2)cc1)C(=O)O (stereo partly drawn) [Example 6, (2S)-2-{4-[(E)-3-(imidazol-1-yl)-3-methyl-2-phenyl-prop-1-enyl]-benzamido}-4-methylsulfanylbutyric acid] |
